Source: ChEMBL document CHEMBL3431459, “Roche carnitine palmitoyltransferase modulator screening data (supplementary data associated with the publication CHEMBL2216752)”
Values after ≈ are worked out from the molar mass of the structure shown.

Legend:
[1] = biological target: T1, Carnitine O-palmitoyltransferase 1, muscle isoform (Homo sapiens, UniProt Q92523); test: SUPPLEMENTARY: Inhibition of Carnitine palmitoyltransferase 1, muscle isoform; design: species or system Muscle tissue
T1 sequence (Q92523 whole entry): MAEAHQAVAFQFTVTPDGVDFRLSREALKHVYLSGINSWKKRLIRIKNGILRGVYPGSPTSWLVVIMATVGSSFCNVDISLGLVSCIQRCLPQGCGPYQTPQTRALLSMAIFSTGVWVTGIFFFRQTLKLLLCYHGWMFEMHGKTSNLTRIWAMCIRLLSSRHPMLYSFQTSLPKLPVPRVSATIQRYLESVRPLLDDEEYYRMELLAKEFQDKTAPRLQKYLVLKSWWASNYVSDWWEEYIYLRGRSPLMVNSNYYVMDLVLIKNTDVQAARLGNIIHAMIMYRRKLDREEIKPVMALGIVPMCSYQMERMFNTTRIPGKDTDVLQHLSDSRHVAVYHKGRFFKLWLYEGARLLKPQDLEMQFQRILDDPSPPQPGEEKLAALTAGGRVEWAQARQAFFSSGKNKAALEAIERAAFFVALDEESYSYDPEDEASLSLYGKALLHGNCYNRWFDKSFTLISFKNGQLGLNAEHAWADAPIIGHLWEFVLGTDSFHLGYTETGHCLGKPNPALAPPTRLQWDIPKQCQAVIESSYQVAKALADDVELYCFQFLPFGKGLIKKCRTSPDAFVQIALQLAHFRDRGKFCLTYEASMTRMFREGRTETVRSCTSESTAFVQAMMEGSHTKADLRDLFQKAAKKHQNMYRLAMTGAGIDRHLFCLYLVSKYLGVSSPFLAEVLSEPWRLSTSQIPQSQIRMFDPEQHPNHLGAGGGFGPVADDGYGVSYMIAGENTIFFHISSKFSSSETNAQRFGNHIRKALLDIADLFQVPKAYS

[2] = biological target: T2, Carnitine O-palmitoyltransferase 2, mitochondrial (Homo sapiens, UniProt P23786); test: (§1) SUPPLEMENTARY: Inhibition of Carnitine palmitoyltransferase 2
T2 sequence (P23786 whole entry): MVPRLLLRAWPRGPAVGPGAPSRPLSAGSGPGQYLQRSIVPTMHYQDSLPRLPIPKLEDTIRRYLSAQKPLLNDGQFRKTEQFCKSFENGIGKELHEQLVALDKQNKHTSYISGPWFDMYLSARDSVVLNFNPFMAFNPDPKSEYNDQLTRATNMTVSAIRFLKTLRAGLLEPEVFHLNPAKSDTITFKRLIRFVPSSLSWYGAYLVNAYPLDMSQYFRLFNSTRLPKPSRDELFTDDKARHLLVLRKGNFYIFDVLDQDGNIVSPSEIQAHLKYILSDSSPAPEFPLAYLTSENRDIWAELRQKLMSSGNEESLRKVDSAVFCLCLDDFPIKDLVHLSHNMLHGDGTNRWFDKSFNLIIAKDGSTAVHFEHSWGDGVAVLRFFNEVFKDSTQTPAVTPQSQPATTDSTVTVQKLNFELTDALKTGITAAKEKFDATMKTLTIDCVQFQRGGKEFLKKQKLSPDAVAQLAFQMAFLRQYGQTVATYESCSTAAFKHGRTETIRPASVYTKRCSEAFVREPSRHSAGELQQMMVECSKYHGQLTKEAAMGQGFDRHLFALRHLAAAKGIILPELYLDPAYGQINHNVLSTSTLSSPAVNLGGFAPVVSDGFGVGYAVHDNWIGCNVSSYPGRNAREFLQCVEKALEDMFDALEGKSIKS

[3] = biological target: T3, Carnitine O-palmitoyltransferase 2, mitochondrial (Rattus norvegicus, UniProt P18886); test: as §1
T3 sequence (P18886 whole entry): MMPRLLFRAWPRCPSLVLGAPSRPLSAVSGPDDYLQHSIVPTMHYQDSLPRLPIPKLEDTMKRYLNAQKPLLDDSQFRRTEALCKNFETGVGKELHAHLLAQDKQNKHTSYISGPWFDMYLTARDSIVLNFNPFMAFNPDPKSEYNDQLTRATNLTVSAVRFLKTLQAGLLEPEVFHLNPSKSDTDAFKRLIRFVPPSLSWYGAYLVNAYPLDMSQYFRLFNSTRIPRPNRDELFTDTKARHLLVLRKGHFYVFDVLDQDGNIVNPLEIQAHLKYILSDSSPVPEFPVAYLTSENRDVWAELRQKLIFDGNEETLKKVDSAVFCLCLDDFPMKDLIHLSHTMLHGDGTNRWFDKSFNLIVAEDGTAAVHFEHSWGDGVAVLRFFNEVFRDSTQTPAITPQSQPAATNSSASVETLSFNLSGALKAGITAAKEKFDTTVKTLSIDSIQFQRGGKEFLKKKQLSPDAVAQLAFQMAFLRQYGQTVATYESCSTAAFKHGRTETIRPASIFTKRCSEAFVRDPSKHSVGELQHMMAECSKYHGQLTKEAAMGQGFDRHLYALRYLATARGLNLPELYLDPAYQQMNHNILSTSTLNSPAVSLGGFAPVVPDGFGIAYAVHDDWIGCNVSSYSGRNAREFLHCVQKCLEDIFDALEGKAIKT

[4] = biological target: T4, Carnitine O-palmitoyltransferase 1, liver isoform (Rattus norvegicus, UniProt P32198); test: (§2) SUPPLEMENTARY: Inhibition of Carnitine palmitoyltransferase 1, liver isoform
T4 sequence (P32198 whole entry): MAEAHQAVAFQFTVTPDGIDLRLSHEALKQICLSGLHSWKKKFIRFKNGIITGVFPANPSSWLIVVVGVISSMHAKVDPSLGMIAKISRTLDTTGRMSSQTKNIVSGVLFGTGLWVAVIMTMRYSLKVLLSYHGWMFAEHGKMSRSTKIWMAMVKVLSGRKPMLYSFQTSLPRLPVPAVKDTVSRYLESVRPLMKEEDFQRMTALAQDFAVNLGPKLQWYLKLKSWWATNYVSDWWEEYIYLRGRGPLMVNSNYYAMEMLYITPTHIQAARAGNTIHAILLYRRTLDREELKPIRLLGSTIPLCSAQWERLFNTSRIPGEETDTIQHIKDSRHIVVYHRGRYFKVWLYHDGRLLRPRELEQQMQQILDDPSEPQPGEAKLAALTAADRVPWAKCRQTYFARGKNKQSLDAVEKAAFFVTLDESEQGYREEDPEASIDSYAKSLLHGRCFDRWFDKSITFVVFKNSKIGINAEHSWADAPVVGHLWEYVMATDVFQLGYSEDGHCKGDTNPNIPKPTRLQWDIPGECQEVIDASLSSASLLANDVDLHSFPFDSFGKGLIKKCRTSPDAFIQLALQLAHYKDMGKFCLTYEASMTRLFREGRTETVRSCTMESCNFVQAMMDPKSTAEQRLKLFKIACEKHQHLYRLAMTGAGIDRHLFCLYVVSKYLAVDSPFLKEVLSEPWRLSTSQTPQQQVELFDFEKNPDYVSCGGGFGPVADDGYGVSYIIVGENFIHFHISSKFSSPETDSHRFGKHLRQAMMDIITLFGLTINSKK

[5] = SUPPLEMENTARY: Lyophilisation Solubility Assay (LYSA); format: physicochemical; conditions: read-out: Kinetic_solubility
[6] = SUPPLEMENTARY: Lipophilicity (log D) Determination by high-throughput shake-flask; format: physicochemical; conditions: octanol/water
[7] = SUPPLEMENTARY: PAMPA permeability assay; format: physicochemical; conditions: read-out: Permeability
[8] = biological target: T5, Carnitine O-palmitoyltransferase 1, liver isoform (Homo sapiens, UniProt P50416); test: as §2
T5 sequence (P50416 whole entry): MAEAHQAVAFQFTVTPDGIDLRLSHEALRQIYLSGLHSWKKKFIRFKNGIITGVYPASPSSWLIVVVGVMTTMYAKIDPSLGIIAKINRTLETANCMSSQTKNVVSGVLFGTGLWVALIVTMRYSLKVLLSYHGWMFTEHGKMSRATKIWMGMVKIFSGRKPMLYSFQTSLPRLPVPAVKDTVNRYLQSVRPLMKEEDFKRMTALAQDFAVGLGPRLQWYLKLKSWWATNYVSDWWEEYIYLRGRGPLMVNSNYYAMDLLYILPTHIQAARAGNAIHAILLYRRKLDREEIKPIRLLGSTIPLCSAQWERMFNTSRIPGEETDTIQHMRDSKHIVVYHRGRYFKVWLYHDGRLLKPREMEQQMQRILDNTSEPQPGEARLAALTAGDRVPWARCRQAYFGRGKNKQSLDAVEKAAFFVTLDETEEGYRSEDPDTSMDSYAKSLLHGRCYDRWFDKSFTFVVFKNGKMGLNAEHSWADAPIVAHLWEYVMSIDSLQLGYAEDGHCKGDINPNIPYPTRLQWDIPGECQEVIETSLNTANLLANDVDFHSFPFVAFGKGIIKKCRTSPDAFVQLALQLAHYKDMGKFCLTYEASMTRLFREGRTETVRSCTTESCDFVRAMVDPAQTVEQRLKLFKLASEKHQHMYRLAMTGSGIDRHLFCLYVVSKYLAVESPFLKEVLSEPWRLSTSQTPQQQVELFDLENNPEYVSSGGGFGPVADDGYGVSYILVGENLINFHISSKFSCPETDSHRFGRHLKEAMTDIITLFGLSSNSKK

SMILES | IC50 [1] [nM] | IC50 [2] [nM] | IC50 [3] [nM] | IC50 [4] [nM] | solubility kinetic [5] [µg/mL] | logD [6] | Papp [7] [×10⁻⁶ cm/s] | IC50 [8] [nM]
O=C(COc1ccccc1)N1CCCC[C@@H]1c1nc(-c2cccnc2)cs1 | 71500 | 16700 | 32800 | 214 | 37 (≈ 97.5 µM) | 3.15 | 3.8 | –
COc1ccc(Cl)cc1S(=O)(=O)c1nn(CC(=O)O)c2ccc(C(=O)Nc3ccccc3)cc12 | 39300 | > 100000 | > 100000 | 24.4 | 374 (≈ 748 µM) | 0.31 | – | 38.4
O=C(COc1ccccc1)N1CCCC[C@@H]1c1nc(-c2ccccn2)cs1 | > 100000 | – | – | 128 | 24 (≈ 63.2 µM) | 3.37 | 9.04 | –
COc1ccc(Cl)cc1S(=O)(=O)c1c[nH]c2ccc(C(=O)Nc3ccc(CC(=O)O)cc3)cc12 | 235 | > 100000 | > 100000 | 23.4 | 41 (≈ 82.2 µM) | 0.17 | – | 21.9
COc1ccc(Cl)cc1S(=O)(=O)c1nn(C)c2ccc(C(=O)Nc3ccccc3)cc12 | > 100000 | > 100000 | > 100000 | 29.2 | < 1 | > 3 | – | 84.5
COc1ccc(Cl)cc1S(=O)(=O)c1c[nH]c2ccc(C(=O)Nc3ccc(C(=O)O)cc3)cc12 | 528 | 1960 | 5120 | 20.3 | 23 (≈ 47.4 µM) | 0.84 | – | 17.5
COc1ccc(Cl)cc1S(=O)(=O)Nc1cccc(C(=O)Nc2ccc(-c3nnn[nH]3)cc2)c1 | 674 | > 100000 | > 100000 | 14.5 | 25 (≈ 51.6 µM) | 0.35 | – | 18.6
O=C(Nc1ccc(C(=O)O)c(F)c1)c1ccc2c(c1)N(S(=O)(=O)c1ccc(Cl)c(Cl)c1)CC2 | 4070 | 11500 | 22500 | 69.5 | 11 (≈ 21.6 µM) | 2.84 | – | 102
COc1ccc(Cl)cc1S(=O)(=O)c1cn(CS(C)(=O)=O)c2ccc(C(=O)Nc3ccccc3)cc12 | > 100000 | > 100000 | > 100000 | 61 | < 1 | > 3 | – | 111
COc1ccc(Cl)cc1S(=O)(=O)c1cn(CC(=O)O)c2ccc(C(=O)Nc3ccccc3)cc12 | 11100 | > 100000 | > 100000 | 7.2 | > 557 | -0.23 | – | 36.1
O=C(COc1ccccc1)N1CCCC[C@@H]1c1csc(-c2n[nH]c3ccccc23)n1 | 77300 | 6230 | 56400 | 129 | < 1 | > 3 | – | –
COc1ccc(Cl)cc1S(=O)(=O)N1CC[S+]([O-])c2ccc(C(=O)Nc3ccc(CC(=O)O)cc3)cc21 (configuration not stated) | 259 | > 100000 | > 100000 | 225 | 456 (≈ 831 µM) | -0.86 | – | 220
COc1ccc(Cl)cc1S(=O)(=O)c1cn(CSC)c2ccc(C(=O)Nc3ccccc3)cc12 | > 100000 | > 100000 | > 100000 | 25.2 | < 1 | > 3 | – | 188
COc1ccc(Cl)cc1S(=O)(=O)c1c[nH]c2ccc(C(=O)Nc3nc(CC(=O)O)cs3)cc12 | 202 | > 100000 | > 100000 | 18.9 | 66 (≈ 130 µM) | -0.02 | – | 39.3
COc1ccc(Cl)cc1S(=O)(=O)N1CCCc2ccc(Oc3ccc(CC(=O)O)cc3)cc21 | 145 | > 100000 | > 100000 | – | – | 1.79 | 0.77 | 550
COc1ccc(Cl)cc1-c1csc([C@H]2CCCCN2C(=O)COc2ccccc2)n1 | > 100000 | > 100000 | > 100000 | 761 | < 1 | > 4 | – | –
